From patent publication US7884133B2, “Pharmaceutical compositions containing (+) cannabidioil and derivatives thereof and some such novel derivatives” (priority 2003, dated 2011)
Entries after “also recorded” stand apart in the source; their conditions may differ. Like-named read-outs stand apart in the source and are kept apart here.

What was measured:
CB1 receptor [1] = molecular target: T1, CB1 receptor (Rattus norvegicus, UniProt P20272); experiment: CB1 receptor binding; conditions: for Ki: first value of CB1/CB2 cell
CB2 receptor [2] = molecular target: T2, CB2 receptor (Homo sapiens, UniProt P34972); experiment: CB2 receptor binding; conditions: for Ki: second value of CB1/CB2 cell
female Sabra mice [3] = experiment: Tetrad: ambulation (horizontal movements) in an open field; assay type: in vivo; conditions: 20 mg/kg i.p., open field 8 min, 30 or 60 min after injection; normalized; * = P<0.05 vs vehicle
Procedure: (§1) Mice were injected with antagonist 90 minutes before testing and/or with agonist 60 minutes before testing in a series of four assays which reflect central cannabinoid activity [Martin (1991) id. ibid.; modified by Fride, E. and R. Mechoulam (1993) id. ibid.]. This “tetrad” consists of, consecutively, ambulation and rearing in an open field (8 minutes), immobility on an elevated ring of 5 cm diameter (4 minutes), rectal temperature (Yellow

female Sabra mice [4] = experiment: Tetrad: rearing (vertical movements) in an open field; assay type: in vivo; conditions: 20 mg/kg i.p., open field 8 min; normalized; * = P<0.05 vs vehicle
Procedure: as §1

female Sabra mice [5] = experiment: Tetrad: catalepsy (immobility) on an elevated ring; assay type: in vivo; conditions: 20 mg/kg i.p., elevated ring 4 min; normalized; * = P<0.05 vs vehicle
Procedure: as §1

female Sabra mice [6] = experiment: Hypothermia (rectal temperature); assay type: in vivo; conditions: 20 mg/kg i.p., * = P<0.05 vs vehicle
Procedure: as §1
(§2) Defecation was measured as the number of fecal pellets voided in the open field. In some experiments (as indicated below), fecal pellets and body temperature were assessed for a prolonged period (3 hr).

female Sabra mice [7] = experiment: Intestinal motility (defecation, number of fecal pellets); assay type: in vivo; conditions: 20 mg/kg i.p.; for Inhibition of Intesitinal Motility (% MPE): defecation in open field 8 min, normalized, * = P<0.05 vs vehicle; for inhibition of defecation / intestinal motility, in words: 60 minutes after injection
Procedure: as §2

female Sabra mice [8] = experiment: Hot plate analgesia (centrally mediated pain); assay type: in vivo; conditions: 20 mg/kg i.p., hot plate 55° C., max 45 sec; normalized; * = P<0.05 vs vehicle
Procedure: Pain perception on a hot plate, is considered to be mediated by a central mechanism whereas the second, late phase of the response to an implantar injection of formalin reflects inflammatory pain mechanisms [Tjolsen, A. and Hole (1997) id. ibid.].
Thus, central pain perception was assessed by the analgesic response on a hot plate (55° C., Columbus Instruments, OH, USA). Peripheral pain was measured by the response to implantar injection of formalin (4%) 45 minutes after injection of the drug.

[9] = test system: arachidonic acid-induced ear inflammation in the mouse; experiment: Arachidonic acid induced inflammation of the external ear; assay type: in vivo; conditions: for inhibition of arachidonic acid-induced ear inflammation, in words: i.p., 10 to 40 mg/kg, ear thickness every 15 minutes for 90 minutes
Procedure: Ear inflammation was measured by assessing ear tissue swelling after topical application of arachidonic acid, as described previously [Hanus (1999) id. ibid.]. Briefly, at various times after i.p. drug injections, arachidonic acid was applied to the inner surface of one ear (4.5 mg dissolved in […] ethanol). The opposite ear served as control (5 ethanol). Ear thickness was determined (in 0.01-mm units) by using a dial thickness gauge (Mitutoyo, Japan) every 15 minutes for 90 minutes, starting immediately after arachidonic acid application.

[10] = test system: CB1−/− receptor knockout mice; experiment: Intestinal motility in CB1−/− receptor knockout mice; assay type: in vivo; conditions: 20 mg/kg i.p., defecation rate recorded for 3 hours
Procedure: Female CB1−/− knockout mice were injected i.p. with (+)-7-OH-CBD-DMH, (+)-CBD-DMH or Δ^9-THC (20 mg/kg). Intestinal motility (defecation rate) was recorded for a period of 3 hours.
(§3) Female Sabra mice (2-3 months of age) were purchased from Harlan, Israel. Breeding pairs of CB1−/− receptor knockout mice were provided by Prof. A. Zimmer, University Clinic Bonn, Germany.
as §2

female Sabra mice [11] = experiment: Tetrad overall (central cannabinoid activity); assay type: in vivo; conditions: 20 mg/kg i.p., tested 60 minutes later
Procedure: Central activity of the compounds of the invention was assessed in the “tetrad”, which is a series of assays commonly used to measure central cannabimimmetic effects [Martin, B. R. et al. (1991) Pharmacol. Biochem. Behav. 40(3): 471-8; Fride, E. and C. Sanudo-Pena (2002) id. ibid.]. Three parameters for peripheral activity were used. Since gastrointestinal transit is regulated locally in the periphery rather than by centrally located CB1 receptors [Izzo (2000) id. ibid.; Landi (2002) id. ibid.], intestinal motility was one of the parameters used, and peripheral cannabinoid effects was measured as rates of defecation (see Example 29).
as §1

female Sabra mice [12] = experiment: Intestinal motility after antagonist pre-treatment (SR141716A, SR144528, capsazepine); assay type: in vivo
Procedure: (SR1, 1 mg/kg). SR1 was injected (i.p.) 30 minutes before the agonist. 60 minutes after (+)CBD-DMH the number of fecal pellets was recorded.
(SR2, 1 mg/kg). SR2 was injected (i.p.) 30 minutes before the agonist. 60 minutes after (+)-CBD-DMH the number of fecal pellets was recorded.
as §1, §2

[13] = test system: CB1−/− receptor knockout mice; experiment: Central effects in CB1−/− receptor knockout mice; assay type: in vivo; conditions: not shown
Procedure: as §3, §1

CB1 receptor [14] = molecular target: T1, CB1 receptor; conditions: cited from earlier work
CB2 receptor [15] = molecular target: T2, CB2 receptor; conditions: cited from earlier work
female Sabra mice [16] = conditions: Hanus (1999); antagonized by SR144528, not by SR141716A; cited from earlier work

T1 sequence (P20272 whole entry): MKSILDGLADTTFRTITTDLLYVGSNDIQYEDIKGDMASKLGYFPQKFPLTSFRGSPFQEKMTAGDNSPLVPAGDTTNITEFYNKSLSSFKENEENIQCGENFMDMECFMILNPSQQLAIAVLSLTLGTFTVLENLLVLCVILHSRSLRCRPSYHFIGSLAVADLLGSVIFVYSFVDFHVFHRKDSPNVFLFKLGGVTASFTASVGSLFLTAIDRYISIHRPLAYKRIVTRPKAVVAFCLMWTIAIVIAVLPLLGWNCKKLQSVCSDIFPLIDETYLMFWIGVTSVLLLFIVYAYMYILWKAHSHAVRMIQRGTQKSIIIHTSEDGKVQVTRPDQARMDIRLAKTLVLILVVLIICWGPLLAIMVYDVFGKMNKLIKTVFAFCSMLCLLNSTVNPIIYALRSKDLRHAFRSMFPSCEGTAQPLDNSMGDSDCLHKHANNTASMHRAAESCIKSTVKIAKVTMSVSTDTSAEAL
T2 sequence (P34972 whole entry): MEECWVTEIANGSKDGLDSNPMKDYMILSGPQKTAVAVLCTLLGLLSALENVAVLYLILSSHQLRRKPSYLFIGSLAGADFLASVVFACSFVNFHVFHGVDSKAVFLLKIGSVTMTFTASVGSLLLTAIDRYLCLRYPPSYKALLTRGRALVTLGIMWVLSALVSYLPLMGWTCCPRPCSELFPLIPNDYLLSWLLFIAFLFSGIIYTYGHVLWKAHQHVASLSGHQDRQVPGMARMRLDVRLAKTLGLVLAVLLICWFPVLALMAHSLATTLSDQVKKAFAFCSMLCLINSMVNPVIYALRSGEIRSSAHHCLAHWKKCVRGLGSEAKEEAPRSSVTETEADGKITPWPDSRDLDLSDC

Compound | Ki (CB1 receptor [1]) [nM] | Ki (CB2 receptor [2]) [nM] | Horizontal Movements (% MPE) (female Sabra mice [3]) | Vertical Movements (% MPE) (female Sabra mice [4]) | Catalepsy (Freezing of Movement) (% MPE) (female Sabra mice [5]) | Hypothermia (Δ-Body Temp.) (female Sabra mice [6]) | Inhibition of Intesitinal Motility (% MPE) (female Sabra mice [7]) | Analgesia (Hot Plate) (% MPE) (female Sabra mice [8]) | further results
C=C(C)C1CCC(C(=O)O)=CC1c1c(O)cc(CCCCC)cc1O (single isomer, unassigned) [+COOH−CBD, 7-Nor-carboxy CBD] | 13.2 | 322 | 80 % MPE | 71 % MPE | 06 % MPE | −0.6 °C | 100* % MPE |  | 
C=C(C)C1CCC(CO)=CC1c1c(O)cc(CCCCC)cc1O (single isomer, unassigned; (+)) [+70H−CBD, (+)-7-Hydroxy CBD] | 5.3 | 101 | 107 % MPE | 81 % MPE | 0 % MPE | 0.3 °C | 89* % MPE | 77 % MPE | 
C=C(C)C1CCC(CO)=CC1c1c(O)cc(C(C)(C)CCCCCC)cc1O (single isomer, unassigned; (+)) [+70H−CBD−DMH, (+)-7-Hydroxy CBD-DMH] |  |  | 01* % MPE | 0* % MPE | 95* % MPE | −5.2* ° C. | 100* % MPE | 100* % MPE | inhibition of defecation / intestinal motility, in words (female Sabra mice [7]): completely blocked; inhibition of arachidonic acid-induced ear inflammation, in words ([9]; listed as (+)7OH-CBD-DMH): effectively prevented ear inflammation; inhibition of arachidonic acid-induced ear inflammation, in words ([9]; listed as (+)-7-OHCBD-DMH): inhibited ear inflammation; effect on intestinal motility in CB1−/− knockout mice ([10]; listed as (+)-7-OH-CBD-DMH): None of the drugs assessed ((+)-CBD-DMH, (+)-7-OH-CBD-DMH and Δ^9-THC had any effect; also recorded: no effects; central effects (tetrad), in words (female Sabra mice [11]): very potent; central effects (tetrad), in words (female Sabra mice [11]; listed as (+)-7-OH-CBD-DMH): had central effects in all assays of the tetrad; central effects (tetrad), in words (female Sabra mice [11]; listed as (+)-7OH-CBD-DMH): significant and consistent central activity; reversal of inhibition of defecation by CB1 antagonist SR141716A (female Sabra mice [12]; agonist 20 mg/kg, SR141716A 1 mg/kg i.p. 30 minutes before agonist): effectively antagonized; reversal of inhibition of defecation by CB2 antagonist SR144528 (female Sabra mice [12]; agonist 20 mg/kg, SR144528 1 or 3 mg/kg i.p. 30 minutes before agonist): not at all; effect of VR1 antagonist capsazepine on inhibition of defecation (female Sabra mice [12]; data not shown): did not affect; central effects in CB1−/− receptor knockout mice [13]: None of the drugs assessed ((+)-CBD-DMH, (+)-7-OH-CBD-DMH and Δ^9-THC had any effect; Ki (CB1 receptor [14]; first value of CB1/CB2 cell, data from Bisogno et al., 2001, read-out: CB1 Receptor Binding (Ki)): 2.5 nM; Kd (CB1 receptor [14]; previously reported, Bisogno et al. 2001, read-out: affinity for the CB1 receptor (Kd)): 2.5 nM; Kd (CB2 receptor [15]; previously reported, Bisogno et al. 2001, read-out: affinity for the CB2 receptor (Kd)): 44 nM; Ki (CB2 receptor [15]; second value of CB1/CB2 cell, data from Bisogno et al., 2001, read-out: CB2 Receptor Binding (Ki)): 44 nM
C=C(C)C1CCC(C)=CC1c1c(O)cc(CCCCC)cc1O (single isomer, unassigned; (+)) [+CBD, (+)-CBD] |  |  | 108 % MPE | 103 % MPE | 05 % MPE | 0.5 °C | 13 % MPE | 13 % MPE | CB1 receptor binding, in words (CB1 receptor [1]): weakly binds; CB2 receptor binding, in words (CB2 receptor [2]): weakly binds; inhibition of defecation / intestinal motility, in words (female Sabra mice [7]): had no central neither peripheral (intestinal motility) effects; also recorded: Lack of effects; inhibition of arachidonic acid-induced ear inflammation, in words [9]: had no effect; central effects (tetrad), in words (female Sabra mice [11]): had no central neither peripheral (intestinal motility) effects; also recorded: Lack of effects
C=C(C)C1CCC(C(=O)O)=CC1c1c(O)cc(C(C)(C)CCCCCC)cc1O (single isomer, unassigned; (+)) [+COOH−CBD−DMH, (+)-7-Nor-carboxy CBD DMH] | 5.8 | 156 | 102 % MPE | 100 % MPE | 0 % MPE | 0.2 °C | 100* % MPE | 09 % MPE | 
CCCCCCC(C)(C)c1cc(OC)c([C@@H]2C=C(CO)[C@@H]3C[C@H]2C3(C)C)c(OC)c1 [HU-308] |  |  |  |  |  |  |  |  | inhibition of defecation (earlier report) (female Sabra mice [16]): inhibited defecation
COc1ccc2c(c1)c(CC(=O)O)c(C)n2C(=O)c1ccc(Cl)cc1 [Indomethacin, reference compound] |  |  |  |  |  |  |  |  | potency compared to indomethacin in ear inflammation, in words ([9]; (+)-CBD-DMH 40 or 10 mg/kg vs indomethacin 20 mg/kg): Equal potencies
CCCCCc1cc(O)c2c(c1)OC(C)(C)[C@@H]1CCC(C)=C[C@@H]21 [Δ^9−THC, Delta-9 tetrahydrocannabinol, reference compound] |  |  | 44* % MPE | 12* % MPE | 44* % MPE | −2.1* ° C. | 100* % MPE | 97* % MPE | effect on intestinal motility in CB1−/− knockout mice [10]: None of the drugs assessed ((+)-CBD-DMH, (+)-7-OH-CBD-DMH and Δ^9-THC had any effect; also recorded: No significant effects; central effects in CB1−/− receptor knockout mice [13]: None of the drugs assessed ((+)-CBD-DMH, (+)-7-OH-CBD-DMH and Δ^9-THC had any effect
